Data taken from PMC10600239, “Selective MCL-1 inhibitor ABBV-467 is efficacious in tumor models but is associated with cardiac troponin increases in patients” (Communications Medicine, 2023).
“And” between values parts separate entries of the source, which are not always exact repeats. Equal values may be shown once. Read-outs that look alike come from different tables or passages of the source.

Key:
[1] = system: DLD-1 cells; assay: In vitro cell viability assay (CellTiter-Glo); format: cell-based, human; settings: for EC50: Homo sapiens
Procedure: (§1) All cell lines were grown and treated in RPMI 1640 or Dulbecco’s modified Eagle medium (Sigma, St. Louis, MO) supplemented with 10% fetal bovine serum (Gibco) or 10% human serum (Sigma) and maintained in a humidified incubator at 5% CO2 and 37 °C. DLD-1, MV4-11, NCI-H929 (all ATCC, Manassas, VA, USA) and AMO-1 (DSMZ, Braunschweig, Germany) cells were plated 4000 cells per well in 384-well tissue culture plates and treated with compounds of interest for 24 h at 37 °C, 5% CO2 humidified incubator. Each concentration was tested in duplicate at least 3 separate times. Adherent cells were allowed to adhere overnight prior to treatment. Alternatively, AMO-1 or NCI-H929 cells were treated with ABBV-467 for the indicated contact times (1–24 h) at 37 °C in a 5% CO2 humidified incubator and washed 3 times with compound-free media prior to incubation for the remainder of a 24-h treatment period. Cell viability was subsequently determined using CellTiter-Glo (Promega, Madison, WI, USA) according to the manufacturer’s instructions.
(§2) For in vitro viability assays, mean EC50 and EC90 values were determined from the resulting dose-response curves from at least 3 independent experiments, and depict the mean ± standard error of the mean.

[2] = system: MV4-11 cells; assay: In vitro cell viability assay (CellTiter-Glo); format: cell-based, human
Procedure: as §1, §2

[3] = system: SKBR3 cells; assay: Cell viability of parental and BAK-, BAX-, BCL2L11-, PMAIP1-deficient SKBR3 cells (CellTiter-Glo); format: cell-based; settings: SKBR3, 24 h
Procedure: Fig. 2 Apoptosis induced by ABBV-467 is mechanism based and induces cell death in MCL-1-dependent cell lines after short target engagement periods. H929 cells were treated with ABBV-467 in the presence or absence of the pan-caspase inhibitor z-VAD-fmk (50 µM) and the impact on caspase-3/7 activation (a), mitochondrial membrane potential (ΔΨm; b), and apoptosis (c) determined. Alternatively, BAK-deficient SKBR3 cells were treated with ABBV-467 for 24 h and the impact on cell viability compared with the parental cell line, determined by CellTiter-Glo. Inset depicts a western blot of BAK and BAX expression in SKBR3 cell variants using GAPDH as a loading control. Each of the 3 proteins were probed on separate blots (d). Data in (a–d) are presented as the mean ± standard error of the mean. H929 and AMO-1 cells were treated with ABBV-467 at the indicated concentrations and the impact on caspase-3/7 activation and viability (DRAQ7-positive) cells determined over time by Incucyte®. Data are presented as the mean ± standard deviation (e). H929 or AMO-1 cells were cultured in media containing 10% human serum and treated with ABBV-467 for the indicated contact times. Cells were subsequently washed 3 times with drug-free media and incubated in drug-free media for the remainder of the 24-h treatment period at 37 °C before cell viability was determined by CellTiter-Glo. Mean EC50 and EC90 values were determined from the resulting dose-response curves from at least 3 independent experiments, each assessed in quadruplicate, and depict the mean ± standard error of the mean. Presented ABBV-467 dose-response curves in H929 and AMO-1 cells were compiled from at least 3 independent experiments (f).
Supplementary Fig. S5: SKBR3 cells deficient in BAX, BAK , PM AIP 1 (gene encoding the protein NOXA),
BCL 2L 11 (gene encoding the protein BIM) were treated with ABBV-467 for 24 hours and the impact on
cell death compared to the parental cell line determined by CellTiter- Glo™.

[4] = system: SU-DHL-1 cells; assay: Cell viability of BAK-deficient and parental SU-DHL-1 cells (CellTiter-Glo); format: cell-based; settings: SU-DHL-1, 24 hr
Procedure: Supplementary Fig . S4: BAK is required for ABBV-467 ac tiv ity in S U-DHL-1 cells. BAK-deficient SU- D HL -1
cells were treated with ABBV-4 67 fo r 24 hr at the indicated concentrations and the impact on cell
viability compared to the parental cell line determined by CellTiter- G lo . N=3 .
(1 picture or pasted object on this page, not shown here)

[5] = Anesthetized dog cardiovascular safety pharmacology; format: in vivo; settings: anesthetized beagle, IV 1, 3 and 10 mg/kg
Source text: ABBV-467 was profiled in safety pharmacology studies in anesthetized (non-Good Laboratory Practice [GLP]) and telemetry-instrumented conscious (GLP) dog cardiovascular assays (Supplementary Table S6).
Supplementary Table S6: Maj or findings in safety pharmac ology cardiovascular studies c onduc ted with ABBV- […]
Species/Strain Route of Concentrations Sex and N Results
Administration or Doses per Group […]
Anesthetized IV 1, 3, and Male No effects up to a plasma concentration dog 10 m g/ k gN=4 o f 16 .83 µg/mL on […]
aged 8-12 months • Heart rate
• Systemic vascular resistance
At 67 .23 mg/m L, an increase in heart rate and decrease in systemic vascular
Conscious IV 0, 0.3, 1, and Male No effects on blood pressure, heart dog 3 mg/kg N=5–6a rate, or ECG parameters at any dose beagle (plasma concentration of 6.53 µg/mL at (aged 8-12 months 3-m g/ k g do s e )
ECG, electrocardiogram; IC50, half maximal inhibitory concentration; IV, intravenous; QTcV, QT interval correct ed accor ding to the Van de Water formula. No animals or data were excl uded from analysis . […] Healthy dogs, as determined by veterinary physical examination and clinical pathology, were selected for study based on availability without explicit randomization. […] Power analysis has shown a group size of 6 can statistically detect an approximately 20 % alteration in measured parameters w ith α =0.0 5. […]

[6] = 4-week (5-dose) IV infusion toxicity study with 4-week recovery
Procedure: range-finding studies, and 4-we ek (5-dose) with recovery GLP studies in rats and dogs. For all studies, test item was
administered once weekly by 30 -minute IV infusion. Standard GLP endpoints were assessed including in- life (body weights,
clinical observations, eye exams), electro cardiograms (dog s only), clinical pathology (hematology, clinical chemistry, and
coagulation) and anatomic pathology (macroscopic and mic roscopic observations and organ weights).
Study design was generally in compliance with FDA Redbook
Guidance IV.C. 3.a. and IV.C.3. b. sections on short-term toxicity studies with rodents and non- rodents, respectively (viz.
Studies were appr oved by the animal use committee of Charles River Laboratories, Mattawan, MI. No animals or
data were excluded from analysis. Healthy dogs, as determined by veterinary physical examination and clinical pathology,
were randomized between dose groups using laboratory information management softw are.

**Q.** Which “activity in DLD-1” value [1] does the source give for `Cc1c(Cl)c2c(Cl)c(C)c1-c1c(-c3ccc(F)cc3)sc3ncnc(c13)O[C@@H](C(=O)O)Cc1cc(ccc1OCc1ccnc(-c3ccc(OC[C@H]4COCCO4)cc3)n1)OC[C@@H](CN1CCN(C)CC1)O2` [ABBV-467] here?
**A.** inactive

**Q.** What about the EC50 ([1]; DLD-1, read-out: DLD-1 EC50 (nM), 10% FBS, 24 h continuous treatment) of the same compound?
**A.** > 10000 nM

**Q.** What about the EC50 ([1]; DLD-1, arithmetic mean, read-out: Arithmetic Mean EC50) of the same compound?
**A.** > 10000 nM

**Q.** What about the EC50 ([1]; DLD-1, individual determinations, read-out: Individual EC50) of the same compound?
**A.** > 10000 nM

**Q.** What about the EC50 ([2]; Homo sapiens, MV4-11, MV4-11, arithmetic mean, read-out: Arithmetic Mean EC50 µM) of the same compound?
**A.** 0.00391 µM

**Q.** And the EC50 ([2]; Homo sapiens, MV4-11, MV4-11, individual determinations, read-out: Individual EC50)?
**A.** 0.00403 µM

**Q.** And the EC50 ([2]; MV4-11, individual determinations, read-out: Individual EC50)?
**A.** 0.00422 µM and 0.00347 µM

**Q.** What about the “effect of BAK deletion on activity” value [3] of the same compound?
**A.** completely inhibited

**Q.** And the “effect of deletion of BAX, BIM or NOXA genes on activity” value [3]?
**A.** did not impact activity

**Q.** What about the “effect of BAK deletion on activity” value [4] of the same compound?
**A.** completely inhibited

**Q.** What about the “plasma concentration up to which no effects on blood pressure, heart rate, contractility, systemic vascular resistance, cardiac output, QTcV, QRS, PR interval” value [5] of the same compound?
**A.** 16 .83 µg/mL

**Q.** And the mortality ([6]; beagle dog, 10 mg/kg after 1 or 2 doses (days 3–10))?
**A.** Mortality

**Q.** And the reversibility of toxicities ([6]; dogs, after a 4-week recovery period)?
**A.** partially or fully reversible

**Q.** What about the “primary target organs of apoptosis/single-cell necrosis” value ([6]; dogs, once-weekly dosing) of the same compound?
**A.** pancreas, liver, gastrointestinal tract, and the hematopoietic system

**Q.** And the “impact on cardiovascular endpoints (anatomic, clinical pathology, and/or function)” value ([6]; multidose GLP toxicity study, dogs)?
**A.** No direct impact
